This note sets out measurements from patent US10538555B2, “Macrocyclic inhibitors of the PD-1/PD-L1 and CD80(B7-1)/PD-L1 protein/protein interactions” (BRISTOL-MYERS SQUIBB COMPANY, priority 2014, dated 2020).

The target of the experiment is T1, Human PD-L1/PD-1 (Homo sapiens, UniProt Q9NZQ7).
T1 construct: TVMV protease cleavage site (C); made in house; host or cells: HEK293T cells
The experiment can be described thus: HTRF Human PD-L1/PD-1 binding assay (PD-1-Ig/PD-L1-His). Particulars: PD-L1-His 10 nM, PD-1-Ig 20 nM. From the text:
Methods for Testing the Ability of Macrocyclic Peptides to Compete for the Binding of PD-1 to PD-L1 Using Homogenous Time-Resolved Fluorescence (HTRF) Binding Assays
The ability of the macrocyclic peptides of the present disclosure to bind to PD-L1 was investigated using a PD-1/PD-L1 Homogenous Time-Resolved Fluorescence (HTRF) binding assay.
Homogenous Time-Resolved Fluorescence (HTRF) Assays of Binding of Soluble PD-1 to Soluble PD-L1. Soluble PD-1 and soluble PD-L1 refers to proteins with carboxyl-end truncations that remove the transmembrane-spanning regions and are fused to heterologous sequences, specifically the Fc portion of the human immunoglobuling G sequence (Ig) or the hexahistidine epitope tag (His). All binding studies were performed in an HTRF assay buffer consisting of dPBS supplemented with 0.1% (w/v) bovine serum albumin and 0.05% (v/v) Tween-20. For the PD-1-Ig/PD-L1-His binding assay, inhibitors were pre-incubated with PD-L1-His (10 nM final) for 15 m in 4 μl of assay buffer, followed by addition of PD-1-Ig (20 nM final) in 1 μl of assay buffer and further incubation for 15 m. PD-L1 fusion proteins from either human, cynomolgus macaques, or mouse were used. HTRF detection was achieved using europium crypate-labeled anti-Ig monoclonal antibody (1 nM final) and allophycocyanin (APC) labeled anti-His monoclonal antibody (20 nM final). Antibodies were diluted in HTRF detection buffer and 5 μl was dispensed on top of binding reaction. The reaction was allowed to equilibrate for 30 minutes and signal (665 nm/620 nm ratio) was obtained using an EnVision fluorometer. Additional binding assays were established between PD-1-Ig/PD-L2-His (20 and 5 nM, respectively), CD80-His/PD-L1-Ig (100 and 10 nM, respectively) and CD80-His/CTLA4-Ig (10 and 5 nM, respectively). Competition studies between biotinylated Compound No. 71 and human PD-L1-His were performed as follows. Macrocyclic peptide inhibitors were pre-incubated with PD-L1-His (10 nM final) for 60 minutes in 4 μl of assay buffer followed by addition of biotinylated Compound No. 71 (0.5 nM final) in 1 μl of assay buffer. Binding was allowed to equilibrate for 30 minutes followed by addition of europium crypated labeled Streptavidin (2.5 pM final) and APC-labeled anti-His (20 nM final) in 5 μl of HTRF buffer. The reaction was allowed to equilibrate for 30 m and signal (665 nm/620 nm ratio) was obtained using an EnVision fluorometer.
Recombinant Proteins. Carboxyl-truncated human PD-1 (amino acids 25-167) with a C-terminal human Ig epitope tag [hPD-1 (25-167)-3S-IG] and human PD-L1 (amino acids 18-239) with a C-terminal His epitope tag [hPD-L1([…])-tobacco vein mottling virus protease cleavage site (TVMV)-His] were expressed in HEK293T cells and purified sequentially by rProteinA affinity chromatography and size exclusion chromatography.
In general terms: In TR-FRET formats the signal depends on donor and acceptor labels being close together.

Setting [1] is: class symbol, read-out: HTRF Human PD-L1/PD-1 Binding Assay IC50 Range.

Read-outs that look alike come from different tables or passages of the source. *1 amine or outer side, *2 acyl side, *3 side chain or, on linkers, in order; H or OH if unused. Where a SMILES comes first, the peptide text is derived from it. Bridges are numbered along the chain shown (N, C = ends). [ ]: non-standard residue; d: D form. ξ: configuration not given here. Trp(1-CH2COOH) = N[C@@H](Cc1cn(CC(=O)O)c2ccccc12)C(=O)O; Phe(3,4,5-F3) = N[C@@H](Cc1cc(F)c(F)c(F)c1)C(=O)O; Phe(3,4-F2) = N[C@@H](Cc1ccc(F)c(F)c1)C(=O)O; NMePhe(4-Me) = CN[C@@H](Cc1ccc(C)cc1)C(=O)O; Phe(4-F) = N[C@@H](Cc1ccc(F)cc1)C(=O)O; d(cisHyp) = O=C(O)[C@H]1C[C@@H](O)CN1; Bta = N[C@@H](Cc1csc2ccccc12)C(=O)O; NMeY = CN[C@@H](Cc1ccc(O)cc1)C(=O)O; Hyp = O=C(O)[C@@H]1C[C@@H](O)CN1; NMeF = CN[C@@H](Cc1ccccc1)C(=O)O; X1 = O=C([C@H]1COCCN1[*:1])[*:2]; dNMeF = CN[C@H](Cc1ccccc1)C(=O)O; dPip(4-aza) = O=C(O)[C@H]1CNCCN1; NMeNle = CCCC[C@H](NC)C(=O)O; NMeA = CN[C@@H](C)C(=O)O; Dab = NCC[C@H](N)C(=O)O; Dap = NC[C@H](N)C(=O)O; CO = O=C([*:1])[*:2]; ξC = NC(CS)C(=O)O

T1 sequence (Q9NZQ7 with tags, fused parts or gaps): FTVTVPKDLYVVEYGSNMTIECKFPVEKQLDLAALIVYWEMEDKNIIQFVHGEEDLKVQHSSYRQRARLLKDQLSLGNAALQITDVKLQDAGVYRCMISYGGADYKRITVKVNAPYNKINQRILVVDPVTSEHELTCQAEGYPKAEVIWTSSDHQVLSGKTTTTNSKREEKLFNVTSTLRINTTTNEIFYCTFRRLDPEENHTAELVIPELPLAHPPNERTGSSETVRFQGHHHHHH

As to `CCCC[C@H]1C(=O)N2CCC[C@@H]2C(=O)N[C@@H](CC(=O)O)C(=O)N[C@@H](C(C)C)C(=O)N(C)[C@@H](Cc2ccccc2)C(=O)N[C@@H](Cc2ccc(O)cc2)C(=O)N2CCC[C@@H]2C(=O)N[C@@H](Cc2c[nH]c3ccccc23)C(=O)N[C@@H](Cc2ccc(O)cc2)C(=O)N[C@@H](CO)C(=O)N[C@H](C(=O)NCC(N)=O)CSCC(=O)N[C@@H](Cc2cc(F)c(F)c(F)c2)C(=O)N(C)[C@@H](Cc2ccccc2)C(=O)N1C` [Example 10094] ({CH2CO}-[Phe(3,4,5-F3)][NMeF][NMeNle][dP]DV[NMeF]Y[dP]WYSCG-NH2; thioether N-13), the IC50 under setting [1] fell in the range of 1 to 9.9 nM. The same measure, in the same setting: the same measure for `CCCC[C@H]1C(=O)N2CCC[C@@H]2C(=O)N[C@@H](CC(=O)O)C(=O)N[C@@H](C(C)C)C(=O)N(C)[C@@H](Cc2ccc(C)cc2)C(=O)N[C@@H](CCC(=O)O)C(=O)N2CCC[C@@H]2C(=O)N[C@@H](Cc2c[nH]c3ccccc23)C(=O)N[C@@H](Cc2ccc(O)cc2)C(=O)N[C@@H](CC(C)C)C(=O)N[C@H](C(=O)NCC(N)=O)CSCC(=O)N[C@@H](Cc2ccc(F)cc2)C(=O)N(C)[C@@H](Cc2ccccc2)C(=O)N1C` [Example 10115] ({CH2CO}-[Phe(4-F)][NMeF][NMeNle][dP]DV[NMePhe(4-Me)]E[dP]WYLCG-NH2; thioether N-13): 100 to 990 nM. Turning to `CCCC[C@H]1C(=O)N(C)[C@@H](CCCC)C(=O)N[C@@H](CCC(=O)O)C(=O)NC(C(=O)NCC(N)=O)CSCC(=O)N[C@@H](Cc2ccc(O)cc2)C(=O)N(C)[C@@H](C)C(=O)N[C@@H](CC(N)=O)C(=O)N2CCC[C@H]2C(=O)N[C@@H](Cc2c[nH]cn2)C(=O)N[C@@H](CC(N)=O)C(=O)N2CCC[C@H]2C(=O)N[C@@H](Cc2c[nH]c3ccccc23)C(=O)N[C@@H](CO)C(=O)N[C@@H](Cc2c[nH]c3ccccc23)C(=O)N1C` (some centres unmarked) [Example 9170] ({CH2CO}-Y[NMeA]NPHNPWSW[NMeNle][NMeNle]E[ξC]G-NH2; thioether N-14), the IC50 under setting [1] lay within 10 to 99.9 nM. Still for that read-out and setting: the same measure for `CCCC[C@H]1C(=O)N(C)[C@@H](CCCC)C(=O)N[C@@H](CCCNC(=N)N)C(=O)NC(C(=O)NCC(N)=O)CSCC(=O)N[C@@H](Cc2ccc(O)cc2)C(=O)N(C)[C@@H](C)C(=O)N[C@@H](CC(N)=O)C(=O)N2CCC[C@H]2C(=O)N[C@@H](CC(N)=O)C(=O)N[C@@H](CC(N)=O)C(=O)N2CCC[C@H]2C(=O)N[C@@H](Cc2c[nH]c3ccccc23)C(=O)N[C@@H](CO)C(=O)N[C@@H](Cc2csc3ccccc23)C(=O)N1C` (some centres unmarked) [Example 10042] ({CH2CO}-Y[NMeA]NPNNPWS[Bta][NMeNle][NMeNle]R[ξC]G-NH2; thioether N-14): 10 to 99.9 nM. The same measure, in the same setting: the same measure for `CCCC[C@H]1C(=O)N(C)[C@@H](C)C(=O)N[C@@H](CCCNC(=N)N)C(=O)NC(C(=O)NCC(N)=O)CSCC(=O)N[C@@H](Cc2ccc(O)cc2)C(=O)N(C)[C@@H](C)C(=O)N[C@@H](CC(N)=O)C(=O)N2CCC[C@H]2C(=O)N[C@@H](CC(N)=O)C(=O)N[C@@H](CC(C)C)C(=O)N2CCC[C@H]2C(=O)N[C@@H](Cc2c[nH]c3ccccc23)C(=O)N[C@@H](CO)C(=O)N[C@@H](Cc2c[nH]c3ccccc23)C(=O)N1C` (some centres unmarked) [Example 9136] ({CH2CO}-Y[NMeA]NPNLPWSW[NMeNle][NMeA]R[ξC]G-NH2; thioether N-14): 10 to 99.9 nM; for `CCCC[C@H]1C(=O)N2C[C@H](O)C[C@@H]2C(=O)N[C@@H](CC(=O)O)C(=O)N[C@@H](C(C)C)C(=O)N(C)[C@@H](Cc2ccccc2)C(=O)N[C@@H](Cc2ccc(O)cc2)C(=O)N2CCNC[C@@H]2C(=O)N[C@@H](Cc2c[nH]c3ccccc23)C(=O)N[C@@H](Cc2ccc(O)cc2)C(=O)N[C@@H](CC(C)C)C(=O)N[C@H](C(=O)NCC(N)=O)CSCC(=O)N[C@@H](Cc2cc(F)c(F)c(F)c2)C(=O)N(C)[C@@H](Cc2ccccc2)C(=O)N1C` [Example 10168] ({CH2CO}-[Phe(3,4,5-F3)][NMeF][NMeNle][d(cisHyp)]DV[NMeF]Y[dPip(4-aza)]WYLCG-NH2; thioether N-13): 1 to 9.9 nM.

For the compound `CCCC[C@H]1C(=O)N2CCC[C@@H]2C(=O)N[C@@H](CC(=O)O)C(=O)N[C@@H](C(C)C)C(=O)N(C)[C@@H](Cc2ccccc2)C(=O)N[C@@H](CCN)C(=O)N2CCOC[C@@H]2C(=O)N[C@@H](Cc2c[nH]c3ccccc23)C(=O)N[C@@H](Cc2ccc(O)cc2)C(=O)N[C@@H](CCC(N)=O)C(=O)N[C@H](C(=O)NCC(N)=O)CSCC(=O)N[C@@H](Cc2cc(F)c(F)c(F)c2)C(=O)N(C)[C@@H](Cc2ccc(O)cc2)C(=O)N1C` [Example 10626] ({CH2CO}-[Phe(3,4,5-F3)][NMeY][NMeNle][dP]DV[NMeF][Dab][X1]WYQCG-NH2; thioether N-13), the IC50 under setting [1] lay in the range of 10 to 99.9 nM. Consider `CCCC[C@H]1C(=O)N(C)CC(=O)N[C@@H](CC(=O)O)C(=O)NC(C(C)c2ccccc2)C(=O)N(C)[C@@H](Cc2ccccc2)C(=O)N[C@@H](Cc2ccc(O)cc2)C(=O)N(C)CC(=O)N[C@@H](Cc2c[nH]c3ccccc23)C(=O)N[C@@H](Cc2ccc(O)cc2)C(=O)N[C@@H](CC(C)C)C(=O)N[C@H](C(=O)NCC(N)=O)CSCC(=O)N[C@@H](Cc2ccccc2)C(=O)N(C)[C@@H](Cc2ccccc2)C(=O)N1C` (single isomer, unassigned) [Example 3230-D], for which, where the note is “read-out: HTRF Human PD-L1/PD-1 Binding Assay IC50”, the IC50 turned out to be 10000 nM. As to `CCCC[C@H]1C(=O)N(C)[C@@H](CCCC)C(=O)N[C@@H](CNC(=O)O)C(=O)N[C@H](C(=O)NCC(N)=O)CSCC(=O)N[C@@H](Cc2ccc(O)cc2)C(=O)N(C)[C@@H](C)C(=O)N[C@@H](CC(=O)O)C(=O)N2CCC[C@H]2C(=O)N[C@@H](CN)C(=O)N[C@@H](CCC(=O)O)C(=O)N2C[C@H](O)C[C@H]2C(=O)N[C@@H](Cc2c[nH]c3ccccc23)C(=O)N[C@@H](CCC(=O)O)C(=O)N[C@@H](Cc2c[nH]c3ccccc23)C(=O)N1C` [Example 5154] ({CH2CO}-Y[NMeA]DP[Dap]E[Hyp]WEW[NMeNle][NMeNle][Dap](CO)CG-NH2; thioether N-14), the IC50 under setting [1] is 10 to 99.9 nM. Same read-out and setting: the same measure for `CCCC[C@H]1C(=O)N2C[C@H](O)C[C@@H]2C(=O)N[C@@H](CC(=O)O)C(=O)N[C@@H](C(C)C)C(=O)N(C)[C@H](Cc2ccccc2)C(=O)N[C@@H](CCN)C(=O)N2C[C@H](O)C[C@@H]2C(=O)N[C@@H](Cc2c[nH]c3ccccc23)C(=O)N[C@@H](Cc2ccc(O)cc2)C(=O)N[C@@H](CC(C)C)C(=O)N[C@H](C(=O)NCC(N)=O)CSCC(=O)N[C@@H](Cc2ccc(F)c(F)c2)C(=O)N(C)[C@@H](Cc2ccccc2)C(=O)N1C` [Example 9299] ({CH2CO}-[Phe(3,4-F2)][NMeF][NMeNle][d(cisHyp)]DV[dNMeF][Dab][d(cisHyp)]WYLCG-NH2; thioether N-13): 1 to 9.9 nM; for `CCCC[C@H]1C(=O)N(C)[C@@H](CCCC)C(=O)N[C@@H](CC(C)C)C(=O)N[C@H](C(=O)NCC(N)=O)CSCC(=O)N[C@@H](Cc2ccc(O)cc2)C(=O)N(C)[C@@H](C)C(=O)N[C@@H](CCN)C(=O)N2CCC[C@H]2C(=O)N[C@@H](Cc2cnc[nH]2)C(=O)N[C@@H](CCC(=O)O)C(=O)N2C[C@H](O)C[C@H]2C(=O)N[C@@H](Cc2c[nH]c3ccccc23)C(=O)N[C@@H](CO)C(=O)N[C@@H](Cc2cn(CC(=O)O)c3ccccc23)C(=O)N1C` [Example 6236] ({CH2CO}-Y[NMeA][Dab]PHE[Hyp]WS[Trp(1-CH2COOH)][NMeNle][NMeNle]LCG-NH2; thioether N-14): 1 to 9.9 nM.
